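In this assay, cells in 96-well plates receive the compound at five concentrations for 48 hours. Endpoints are linearly interpolated between the surrounding concentrations. Abbreviation: GI50, concentration required for 50% inhibition of growth. TGI denotes the concentration required for complete inhibition of growth.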
Tests used:
Assay in all cases: inhibition of tumour cell growth, NCI panel, 48 h
[1] = tested on: 786-0 renal
[2] = tested on: HL-60(TB) leukemia
[3] = tested on: HOP-62 NSCLC
[4] = tested on: MDA-MB-231 breast
[5] = tested on: OVCAR-4 ovarian
[6] = tested on: RXF 393 renal
[7] = tested on: SF-268 CNS
[8] = tested on: SNB-75 CNS
[9] = tested on: UACC-257 melanoma
[10] = tested on: NCI-H23 lung

| SMILES | TGI [1] | TGI [2] | TGI [3] | TGI [4] | TGI [5] | TGI [6] | TGI [7] | TGI [8] | TGI [9] | TGI [10] | GI50 [2] | GI50 [3] | GI50 [4] | GI50 [10] | GI50 [5] | GI50 [6] | GI50 [7] | GI50 [8] | GI50 [9] |
| --- | --- | --- | --- | --- | --- | --- | --- | --- | --- | --- | --- | --- | --- | --- | --- | --- | --- | --- | --- |
| Cc1cc(S(=O)(=O)/N=C(/NN)Nc2ccc(Cl)cc2)c(S)cc1Cl | 45.6 µM | 63.8 µM | 28 µM | 84.2 µM | 62.8 µM | 78.8 µM | 61.8 µM | 28.8 µM | 72.5 µM | – | – | – | – | – | – | – | – | – | – |
| Cc1ccc(S(=O)(=O)NC(=O)C2=C3SCCN3C(=O)N(S(=O)(=O)c3ccc(C)cc3)C2c2ccccc2)cc1 (stereo not given) | > 100 µM | > 100 µM | > 100 µM | > 100 µM | > 100 µM | 78.7 µM | > 100 µM | > 100 µM | > 100 µM | > 100 µM | – | – | – | – | – | – | – | – | – |
| Cc1cc(-c2nc3cccc(O)c3s2)ccc1N | > 100 µM | 47.2 µM | > 100 µM | > 100 µM | – | > 100 µM | > 100 µM | > 100 µM | > 100 µM | 93 µM | – | – | – | – | – | – | – | – | – |
| CCOC(=O)c1cc(Br)c(-c2onc(C)c2Br)[nH]1 | 59.3 µM | > 100 µM | 49.9 µM | 45.5 µM | > 100 µM | 38.7 µM | > 100 µM | > 100 µM | > 100 µM | > 100 µM | – | – | – | – | – | – | – | – | – |
| Cc1c2cccc-2ccc2c3ccccc3n(C(=O)c3ccc(Cl)cc3)c12 | > 100 µM | > 100 µM | > 100 µM | > 100 µM | > 100 µM | > 100 µM | > 100 µM | > 100 µM | > 100 µM | > 100 µM | – | – | – | – | – | – | – | – | – |
| CCNc1cc2c3c(c1)CCN3CCC2 | > 10 µM | > 10 µM | > 10 µM | > 10 µM | > 10 µM | > 10 µM | > 10 µM | > 10 µM | > 10 µM | > 10 µM | – | – | – | – | – | – | – | – | – |
| O=C(O)c1ccccc1C1c2ccccc2Oc2ccccc21 | > 100 µM | > 100 µM | > 100 µM | > 100 µM | > 100 µM | > 100 µM | > 100 µM | 85.8 µM | > 100 µM | > 100 µM | – | – | – | – | – | – | – | – | – |
| O=C1NC(N2CCOCC2)=N/C1=C\c1ccc(O)cc1 | > 100 µM | > 100 µM | > 100 µM | > 100 µM | > 100 µM | > 100 µM | > 100 µM | > 100 µM | > 100 µM | > 100 µM | – | – | – | – | – | – | – | – | – |
| O=C(c1ccc(Cl)cc1)N1CCN=C1c1cc2ccccc2c2ccccc12 | 30.4 µM | 49.9 µM | 33.3 µM | 29.9 µM | 27.7 µM | 30.6 µM | 31.9 µM | 25.7 µM | 31.8 µM | 32.7 µM | – | – | – | – | – | – | – | – | – |
| COc1nc(C#CC2CCCCC2)nc(OC)n1 | 7.77 µM | 26 µM | 18.4 µM | 13.2 µM | 27.3 µM | 19.1 µM | 20.4 µM | 27.6 µM | 23.5 µM | 8.6 µM | – | – | – | – | – | – | – | – | – |
| CC1(C)CC[C@]2(C(=O)O)CC[C@]3(C)[C@H](C(=O)C=C4[C@@]5(C)C=C(C#N)C(=O)C(C)(C)[C@@H]5CC[C@]43C)[C@@H]2C1 | 3.39 µM | 11.4 µM | 3.28 µM | 7.34 µM | 23.2 µM | 1.5 µM | 7.78 µM | 2.84 µM | 2.84 µM | 0.628 µM | – | – | – | – | – | – | – | – | – |
| COc1cccc(C2c3cc4c(cc3OC(Nc3ccccc3)C2C)OCO4)c1O (stereo not given) | 32.1 µM | > 23.9 µM | 36.9 µM | 37 µM | > 100 µM | 31.4 µM | > 55.6 µM | 26.8 µM | > 57.8 µM | 45.2 µM | – | – | – | – | – | – | – | – | – |
| C=C1CC(C)(c2cccc(Nc3nc4ccccc4c4occc34)c2)OC1=O (stereo not given) | 3.08 µM | 5.38 µM | 25.9 µM | 23.1 µM | 20.4 µM | 6.02 µM | 29.1 µM | 18.3 µM | 3.47 µM | – | – | – | – | – | – | – | – | – | – |
| Cn1c(=O)sc2cc(C(=S)N3CCCCC3)ccc21 | > 100 µM | 42.7 µM | > 100 µM | > 100 µM | – | > 100 µM | > 100 µM | 86.5 µM | > 100 µM | > 100 µM | – | – | – | – | – | – | – | – | – |
| CC(C)CCOC(=O)NC(Nc1ccc(F)cc1)(C(F)(F)F)C(F)(F)F | > 100 µM | > 100 µM | > 100 µM | 76.1 µM | – | > 100 µM | > 100 µM | > 100 µM | > 100 µM | > 100 µM | – | – | – | – | – | – | – | – | – |
| COC(=O)Cn1cnc2c(Cl)nc(Nc3ccccc3)nc21 | > 100 µM | > 100 µM | > 100 µM | > 100 µM | > 100 µM | > 100 µM | – | > 100 µM | > 100 µM | – | – | – | – | – | – | – | – | – | – |
| COc1ccccc1C1C(C#N)=C(N)Oc2n[nH]c(C)c21 (stereo not given) | – | > 100 µM | > 100 µM | > 100 µM | > 100 µM | > 100 µM | > 100 µM | > 100 µM | > 100 µM | > 100 µM | 62 µM | > 100 µM | 15.1 µM | > 100 µM | > 100 µM | > 100 µM | > 100 µM | > 100 µM | > 100 µM |
| NC(=S)NC/C=C/Cl | > 100 µM | > 100 µM | > 100 µM | > 100 µM | > 100 µM | > 100 µM | – | > 100 µM | > 100 µM | > 100 µM | – | – | – | – | – | – | – | – | – |

Source: PubChem BioAssay (NCI)
